Results from patent US11477982B2, “2-amino-5-oxyalkyl-pyrimidine derivatives and their use for controlling undesired plant growth” (Bayer CropScience Aktiengesellschaft, priority 2017, dated 2022).

What was measured:
Type in all cases: in vivo
[1] = tested on: ABUTH: Abutilon theophrasti; assay: Pre-emergence herbicidal effect; conditions: for Herbicidal action against ABUTH: dosage 320 g/ha
Method in brief: (§1)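 Visual damage rating after ~3 weeks in greenhouse, expressed as % activity relative to untreated pots, where 0% equals control and 100% means dead plants. Treatment was pre-emergence: WP or EC formulations applied to covering soil at 600 l/ha water with 0.5% additive.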

[2] = tested on: ALOMY: Alopecurus myosuroides; assay: Pre-emergence herbicidal effect; conditions: for Herbicidal action against ALOMY: dosage 320 g/ha
Method in brief: as §1

[3] = tested on: AMARE: Amaranthus retroflexus; assay: Pre-emergence herbicidal effect; conditions: for Herbicidal action against AMARE: pre-emergence, dosage 320 g/ha
Method in brief: as §1

[4] = tested on: AVEFA: Avena fatua; assay: Pre-emergence herbicidal effect; conditions: dosage 320 g/ha
Method in brief: as §1

[5] = tested on: ECHCG: Echinochloa crus-galli; assay: Pre-emergence herbicidal effect; conditions: for Herbicidal action against ECHCG: dosage 320 g/ha
Method in brief: as §1

[6] = tested on: HORMU: Hordeum murinum; assay: Pre-emergence herbicidal effect; conditions: for Herbicidal action against HORMU: pre-emergence, dosage 320 g/ha
Method in brief: as §1

[7] = tested on: LOLRI: Lolium rigidum; assay: Pre-emergence herbicidal effect; conditions: for Herbicidal action against LOLRI: dosage 320 g/ha
Method in brief: as §1

[8] = tested on: MATIN: Matricaria inodora; assay: Pre-emergence herbicidal effect; conditions: for Herbicidal action against MATIN: pre-emergence, dosage 320 g/ha
Method in brief: as §1

[9] = tested on: PHBPU: Ipomoea purpurea; assay: Pre-emergence herbicidal effect; conditions: for Herbicidal action against PHBPU: dosage 320 g/ha
Method in brief: as §1

[10] = tested on: POLCO: Polygonum convolvulus; assay: Pre-emergence herbicidal effect; conditions: for Herbicidal action against POLCO: dosage 320 g/ha
Method in brief: as §1

[11] = tested on: SETVI: Setaria viridis; assay: Pre-emergence herbicidal effect; conditions: for Herbicidal action against SETVI: dosage 320 g/ha
Method in brief: as §1

[12] = tested on: STEME: Stellaria media; assay: Pre-emergence herbicidal effect; conditions: for Herbicidal action against STEME: pre-emergence, dosage 320 g/ha
Method in brief: as §1

[13] = tested on: VERPE: Veronica persica; assay: Pre-emergence herbicidal effect; conditions: dosage 320 g/ha
Method in brief: as §1

[14] = tested on: VIOTR: Viola tricolor; assay: Pre-emergence herbicidal effect; conditions: dosage 320 g/ha
Method in brief: as §1

[15] = tested on: ABUTH: Abutilon theophrasti; assay: Post-emergence herbicidal effect; conditions: dosage 320 g/ha
Method in brief: (§2)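 Weeds grown from seed in sandy loam in the greenhouse were sprayed at the one-leaf stage, 2 to 3 weeks after sowing. Compounds formulated as WP or EC were applied as aqueous suspension or emulsion with 0.5% additive at 600 l/ha. Activity was scored visually after about 3 weeks versus untreated controls (100% = dead, 0% = as control).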

[16] = tested on: AMARE: Amaranthus retroflexus; assay: Post-emergence herbicidal effect; conditions: dosage 320 g/ha
Method in brief: as §2

[17] = tested on: ECHCG: Echinochloa crus-galli; assay: Post-emergence herbicidal effect; conditions: dosage 320 g/ha
Method in brief: as §2

[18] = tested on: SETVI: Setaria viridis; assay: Post-emergence herbicidal effect; conditions: dosage 320 g/ha
Method in brief: as §2

[19] = tested on: STEME: Stellaria media; assay: Post-emergence herbicidal effect; conditions: dosage 320 g/ha
Method in brief: as §2

[20] = tested on: VERPE: Veronica persica; assay: Post-emergence herbicidal effect; conditions: dosage 320 g/ha
Method in brief: as §2

[21] = tested on: VIOTR: Viola tricolor; assay: Post-emergence herbicidal effect; conditions: dosage 320 g/ha
Method in brief: as §2

[22] = Table 4a, dosage 20 g of a.i./ha
[23] = Table 4a, pre-emergence, dosage 20 g of a.i./ha
[24] = Table 4b, pre-emergence as titled, dosage 80 g of a.i./ha

Row | Compound | Herbicidal action against ABUTH [1] [%] | Herbicidal action against ALOMY ([2]; pre-emergence) [%] | Herbicidal action against AMARE [3] [%] | Herbicidal action against AVEFA [4] [%] | Herbicidal action against ECHCG ([5]; pre-emergence) [%] | Herbicidal action against HORMU [6] [%] | Herbicidal action against LOLRI [7] [%] | Herbicidal action against MATIN [8] [%] | Herbicidal action against PHBPU [9] [%] | Herbicidal action against POLCO [10] [%] | Herbicidal action against SETVI ([11]; pre-emergence) [%] | Herbicidal action against STEME [12] [%] | Herbicidal action against VERPE [13] [%] | Herbicidal action against VIOTR [14] [%] | Herbicidal action against ABUTH [15] [%] | Herbicidal action against AMARE [16] [%] | Herbicidal action against ECHCG [17] [%] | Herbicidal action against SETVI [18] [%] | Herbicidal action against STEME [19] [%] | Herbicidal action against VERPE [20] [%] | other results
1 | C=CC(C)(O)c1cnc(N[C@H]2c3cc(C)ccc3C[C@@H]2C)nc1 (stereo partly drawn) [Example 1.15, 2-(2-{[(1R,2S)-2,6-Dimethyl-2,3-dihydro-1H-inden-1-yl]amino}pyrimidin-5-yl)but-3-en-2-ol] | 100 | 100 | 100 | 100 | 100 | 100 | 100 | 100 | 100 | 100 | 100 | 100 | 100 | 100 | 90 | 90 | 100 | 80 | 100 | 90 | Herbicidal action against VIOTR [21]: 80%
2 | CCC(C)(O)c1cnc(N[C@H]2c3cc(C)ccc3C[C@@H]2C)nc1 (some centres unmarked) [Example 1.14] | 100 | 100 | 100 | 100 | 100 | 100 | 100 | 100 | 100 | 100 | 100 | 100 | 100 | 100 | 90 | 100 | 100 | 90 | 100 | 90 | Herbicidal action against VIOTR [21]: 90%
3 | CCC(O)(CC)c1cnc(N[C@H]2c3cc(C)ccc3C[C@@H]2C)nc1 [Example 1.10] | 100 | 100 | 100 | 100 | 100 | 100 | 100 | 100 | 80 | 100 | 100 | 100 | 100 | 100 | 90 | 90 | 100 | 80 | 100 | 90 | Herbicidal action against VIOTR [21]: 90%
4 | Cc1ccc2c(c1)[C@H](Nc1ncc(C(C)(C)O)c(C)n1)CC2 [Example 1.12] | 100 | 100 | 100 | 100 | 100 | 100 | 100 | 100 | 100 | 100 | 100 | 100 | 100 | 100 | 90 | 90 | 100 | 100 | 100 | 90 | Herbicidal action against VIOTR [21]: 80%
5 | CC#CC(C)(O)c1cnc(N[C@H]2c3cc(C)ccc3C[C@@H]2C)nc1 (some centres unmarked) [Example 1.22] | 100 | 100 | 100 | 100 | 100 | 100 | 100 | 100 | 100 | 100 | 100 | 100 | 100 | 100 | 90 | 90 | 100 | 100 | 90 | 90 | Herbicidal action against VIOTR [21]: 90%
6 | CC1Cc2ccccc2C1Nc1ncc(C(C)(C)O)cn1 (mixture of isomers) [Example 1.55] | 100 | 90 | 100 | 100 | 100 | 100 | 100 | 100 | 90 | 100 | 100 | 100 | 100 | 100 | 90 | 90 | 100 | 100 | 90 | 90 | Herbicidal action against VIOTR [21]: 90%
7 | C=C(C)COC(C)(C)c1cnc(N[C@H]2c3cc(C)ccc3C[C@@H]2C)nc1 [Example 1.63] | 100 | 100 | 100 | 90 | 100 | 90 | 100 | 100 | 100 | 100 | 100 | 100 | 100 | 100 | 90 | 100 | 100 | 100 | 90 | 90 | Herbicidal action against VIOTR [21]: 90%
8 | Cc1ccc2c(c1)C(Nc1ncc(C(C)(C)O)c(C)n1)CCC2 (racemic) [Example 1.52] | 100 | 100 | 100 | 100 | 100 | 100 | 100 | 100 | 100 | 100 | 100 | 100 | 100 | 100 | 90 | 90 | 100 | 80 | 100 | 90 | Herbicidal efficacy against ABUTH [1, 22]: 100; Herbicidal efficacy against ALOMY [2, 23]: 90; Herbicidal efficacy against ALOMY [2, 24]: 90; Herbicidal efficacy against AMARE [3, 24]: 80; Herbicidal efficacy against ECHCG [5, 23]: 100; Herbicidal efficacy against ECHCG [5, 24]: 70; Herbicidal efficacy against HORMU [6, 24]: 90; Herbicidal efficacy against LOLRI [7, 22]: 60; Herbicidal efficacy against MATIN [8, 24]: 70; Herbicidal efficacy against PHBPU [9, 22]: 100; Herbicidal efficacy against POLCO [10, 22]: 100; Herbicidal efficacy against SETVI [11, 23]: 100; Herbicidal efficacy against SETVI [11, 24]: 80; Herbicidal efficacy against STEME [12, 24]: 90; Herbicidal action against VIOTR [21]: 90%
